The subject of series [1] is formalin-induced licking behavior in mice. Briefly: Formalin-induced licking behavior. It counts as in vivo, Swiss Webster mice. Conditions: morphine 2.5 mg/kg i.p., ASA 200 mg/kg p.o., LASSBio-2265 1, 3 and 10 mg/kg p.o., compared to vehicle. As to the method: This assay was performed as described by Hunskaar et al. and adapted by Gomes et al.. This model was characterized by a response that occurred in two phases. The first phase (acute neurogenic pain) occurred during the first 5 min after the intraplantar injection of formalin, and the second phase (inflammatory pain) occurred 15 to 30 min post-injection. Mice were pretreated with oral doses of LASSBio-2265 (11, at 1, 3 or 10 mg/kg, p.o.), morphine (2.5 mg/kg, i.p.), acetylsalicylic acid (ASA, 200 mg/kg, p.o.), or the vehicle (same amount of DMSO used to solubilize the substances + NaCl 0.9%) 60 min before the administration of formalin. […] Then, mice (n = 7 per group) received 20 μL of formalin (2.5% v/v) in the dorsal surface of the left hind paw. The time that the mice spent licking the injected paw was immediately recorded. […] The final volume administered to mice was 0.1 mL.

The nature of series [2]: Parallel artificial membrane permeability assay, blood-brain barrier (PAMPA-BBB). Conditions: for PAMPA-BBB Score: porcine brain lipid membrane. As to the method: In a 5 mL glass vial, 1 mg of each compound (test or control) was dissolved in 1 mL of ethanol. Then, 500 μL of ethanol and 3.5 mL of PBS at pH 7.4 were added to this solution. […] After 5 min, the donor plate received 180 μL of each compound solution in triplicate. […] The experiments were performed in triplicate with two different analyses (n = 2).

The nature of series [3]: Parallel artificial membrane permeability assay, gastrointestinal (PAMPA-GI / PAMPA-GTI). Conditions: for Papp at 8 h, 0.5 mM: PAMPA; for Classification / Pe Exp / Fa: Table S1, PAMPA-GTI; for Fa / PAMPA-GI Fa Exp: absorbed fraction; for PAMPA-GI Fa Exp: soybean L-α-phosphatidylcholine membrane.
Protocol: A 10 mM solution of each compound (tests and controls) was prepared in DMSO. Then, in a 5 mL glass flask, 250 µL of the freshly prepared solution was homogenized with 4750 µL of PBS at pH 6.6 to a concentration of 10 mM. The solution was then filtered in a 0.45 µm PVDF filter and set aside. Then, 180 µL of a solution of phosphate-bufffered saline (PBS, pH 7.4):DMSO (95:5) was added to the wells of the receptor plate, and 5 µL of the soy L-α-phosphatidylcholine lipid solution (20 mg/mL in dodecane) was added to the wells of the donor plate. After 5 min, the donor plate received 180 µL of the reserved solution containing each compound. […] After this period, the donor plate was removed, and the contents of the recipient plate were transferred to a UV reading plate and read (SpectraMax 5, Molecular Devices) at the maximum wavelengths for each compound. The blank was prepared with 180 µL of PBS solution (pH 7.4):DMSO (95:5). The experiments were carried out in triplicate with two different analyses (n = 2) [37]. The optical density values obtained from the readings at each selected wavelength for each of the compounds were analyzed by comparison with the values of the controls. These values were used to determine the absorbed fraction (Fa %) using the JMP® program version 10.0.
The nature of series [4]: Aqueous solubility (thermodynamic, UV spectroscopy). The series is classed as physicochemical. Conditions: aqueous buffer, thermodynamic from solid, phosphate buffer pH 7.4, 37 °C. The protocol:
The test was performed based on the absorbance obtained by ultraviolet spectroscopy. The scanning wavelength was determined according to the highest absorbance observed for each compound. Saturated aqueous solution of the analyzed compounds were stirred for 4 h at 37 °C, and then filtered through a 0.45 µm PVDF filter and transferred to a quartz cuvette (10 mm optical path) for reading. Solubility was determined by linear regression based on the equation of the line.

Series [5] relates to plasma carboxylesterases. Briefly: Plasma stability against enzymatic hydrolysis. Conditions: rat plasma, determined after 240 min. The series is classed as in vitro ADME, Wistar rats. As to the method: For the evaluation of plasma stability against plasma carboxylesterases, a pool of plasma male Wistar rats weighing 300–360 g kept in the vivarium of the Laboratory of Biochemical and Molecular Pharmacology-UFRJ was used. Blood was collected with heparin and kept on ice. Then, the samples were centrifuged at 2000 rpm for 15 min at 20 °C, with subsequent removal of the plasma. The plasma was then diluted 80% (v/v) with phosphate buffer (PBS; pH = 7.4) at 37 °C. The experiments performed in this work were approved by the Ethics Committee on the Use of Animals in Scientific Experiments of the Health Sciences Center of the Federal University of Rio de Janeiro (Number 028/15). The biological matrix was incubated at 37 °C under agitation for 30, 60, 120, and 240 min. The degree of degradation was evaluated by HPLC-PDA with methyl 1,1′bisphenyl-4-carboxylate as an internal standard (PI), using an isocratic mobile phase of 70%:30% acetonitrile:water (0–15 min), an injection volume of 20 μL, a flow rate of 1 mL/min, and detection at 254 nm.

Series [6] in a line: Distribution coefficient at pH 7.4 (shake-flask, octanol/phosphate buffer). It counts as physicochemical. Conditions: 1-octanol/buffer pH 7.4; n-octanol/buffer partitioning at pH 7.4, UV method; read-out: Log D7.4. As to the method:
The assay was performed based on the shake-flask method and the absorbance readings by ultraviolet spectroscopy at maximum absorbance wavelength. To a Falcon tube with a capacity of 15 mL, 5 mL of buffer solution at pH 7.4 and 5 mL of 1-octanol were added. Then, the tested compounds were added at defined concentrations of approximately 10–15 µM, and the mixtures were homogenized via vigorous manual shaking. Next, the Falcon tubes were stirred for 4 h at 37 °C, and the experiment was carried out in triplicate for each compound. Subsequently, each sample was placed in a separatory funnel, and the collected aqueous phase was filtered through a 0.45 µm PVDF filter and transferred to a quartz cuvette (10 mm optical path) for UV/Vis reading. The distribution coefficient of each compound at pH 7.4 was determined by linear regression using the straight-line equation [33].

For series [7] the following is noted: Table S2, PAMPA-BBB, drugs used as standard; cited from earlier work. In general terms: In PAMPA a lipid-coated filter parts donor from acceptor wells.
On the set-up of series [8]: method as in ZHU et al., 2002. Conditions: Table S1, PAMPA-GTI, drugs used as standard; ref ZHU et al., 2002; cited from earlier work.
Where [9] appears, read: PAMPA, 2.75 h, 0.2 mg/mL, pH 7.4.

The structures appear in SMILES notation. Values after ≈ are worked out from the molar mass of the structure shown.

With `CN1CC[C@]23c4c5ccc(O)c4O[C@H]2[C@@H](O)C=C[C@H]3[C@H]1C5` [morphine, reference compound], the “Analgesia in the first phase of the formalin test” value in [1] is reported as “promoted significant analgesia”.
In the case of `Cc1c(N(C)C(=O)C(C)c2ccc(CC(C)C)cc2)c(=O)n(-c2ccccc2)n1C` (stereo not shown) [Compound 10, N-(1,5-dimethyl-3-oxo-2-phenyl-2,3-dihydro-1H-pyrazol-4-yl)-2-(4-isobutylphenyl)-N-methylpropanamide], the Papp (commonly the rate of passage across a membrane or cell layer, normalised by area and donor concentration) at 2.75 h, 0.2 mg/mL in [2] (PAMPA, pH 7.4) was 12.7 ×10⁻⁶ cm/s. Further, in series [2] (Table S2, PAMPA-BBB), the Classification result is given as “CNS +” and the Pe experimental is 12,68 10-6 cm s-1. In addition, the “PAMPA-BBB Score” value in series [2] is “CNS+ (CNS+ (high predicted BBB permeability) Pe > 4.0 × 10^−6 cm/s)”. Further, in series [3], the apparent permeability (Papp) at 8 h, 0.5 mM was 2.51 ×10⁻⁶ cm/s; the Classification result was “HIGH (high intestinal permeability: >70%)”; the “Pe Exp” value was 9,15 10-6 cm/s; the Fa is 96,91%. In addition, the solubility – broadly, the concentration that dissolves in the medium under given conditions – at 4 h in series [4] is 47.7 µM (≈ 19.3 µg/mL). Also, the “Plasma Metabolization Rate” value in [5] is on record as 32.50%. In series [6], the logD was determined as 2.43.
As to `Cn1c(=O)c2c(ncn2C)n(C)c1=O` [Caffeine, reference compound], in [2] (setting [9]), the Pe experimental was 0,81 10-6 cm s-1. The Classification entry in series [2] (Table S2, PAMPA-BBB) is listed as “CNS -”. Also, in [7], the Pe literatura is on record as 1,3 10-6 cm s-1.
As for `O=C(O)c1cc(/N=N/c2ccc(S(=O)(=O)Nc3ccccn3)cc2)ccc1O` [Sulfassalazine], the “Pe Lit” value in [8] is on record as 0,3 10-6cm/s.
Turning to `CN1C(=O)CN=C(c2ccccc2)c2cc(Cl)ccc21` [Diazepam, reference compound], in series [2] (Table S2, PAMPA-BBB), the Classification entry is listed as “CNS +” and the Pe experimental was 14,30 10-6 cm s-1. For the same compound, the Pe literatura in series [7] is 16 10-6 cm s-1.
Take `CCn1cc(C(=O)O)c(=O)c2cc(F)c(N3CCNCC3)nc21` [Enoxacin, reference compound]: the Pe experimental in series [2] (setting [9]) is 0,53 10-6 cm s-1. Moreover, the Classification result in series [2] (Table S2, PAMPA-BBB) is “CNS -”. Moreover, the Pe literatura in [7] was 0,9 10-6 cm s-1.
Regarding `CC(=O)Oc1ccccc1C(=O)O` [acetylsalicylic acid, reference compound], in series [3], the Classification result is given as “AVERAGE (medium intestinal permeability: 30–69%)”, the “Pe Exp” value is recorded as 1,69 10-6 cm/s and the Fa is given as 47,36%. In series [1], the “Analgesia in the first phase of the formalin test” value is “only morphine (2.5 mg/kg) promoted significant analgesia”. The “Pe Lit” value in [8] is 3,8 10-6cm/s.
`O=c1ccc2ccccc2o1` [Coumarin, reference compound]: in [3], the Classification entry was “HIGH (high intestinal permeability: >70%)”, the “Pe Exp” value is on record as 22,65 10-6 cm/s and the Fa is 99,98%.
Taken in the same sequence, the figures for `CNC(=C[N+](=O)[O-])NCCSCc1ccc(CN(C)C)o1` [Ranitidine, reference compound] were “LOW (low intestinal permeability: <29%)”, 0,38 10-6 cm/s and 13,48%.
For `CC(=O)N1CCN(c2ccc(OCC3COC(Cn4ccnc4)(c4ccc(Cl)cc4Cl)O3)cc2)CC1` (stereo not shown) [Ketoconazole, reference compound], in series [3], the Classification result is reported as “HIGH (high intestinal permeability: >70%)”, the “Pe Exp” value is 4,93 10-6 cm/s and the Fa is 84,68%. Moreover, the “Pe Lit” value in [8] was 3,3 10-6cm/s.
In the case of `Cc1c(NC(=O)C(C)c2ccc(CC(C)C)cc2)c(=O)n(-c2ccccc2)n1C` (stereo not shown) [Compound 7, N-(1,5-dimethyl-3-oxo-2-phenyl-2,3-dihydro-1H-pyrazol-4-yl)-2-(4-isobutylphenyl) propanamide], the melting point (commonly the temperature, or range, at which the solid turns liquid) amounted to 151.2 °C. The compound also came in with a Papp at 2.75 h, 0.2 mg/mL in series [2] (PAMPA, pH 7.4) of 12.8 ×10⁻⁶ cm/s. For the same compound, in series [2] (Table S2, PAMPA-BBB), the Classification entry was “CNS +” and the Pe experimental is 12,77 10-6 cm s-1. The “PAMPA-BBB Score” value in series [2] is listed as “CNS+ (CNS+ (high predicted BBB permeability) Pe > 4.0 × 10^−6 cm/s)”. In addition, in [3], the Papp at 8 h, 0.5 mM stood at 15.4 ×10⁻⁶ cm/s; the Classification entry is “HIGH (high intestinal permeability: >70%)”; the “Pe Exp” value was 15,38 10-6 cm/s; the Fa is given as 99,71%. In series [3], the “PAMPA-GI Fa Exp” value was 99.71%. Moreover, the solubility at 4 h in series [4] was determined as 12.1 µM (≈ 4.75 µg/mL). Besides, the “Plasma Metabolization Rate” value in series [5] was found to be 56.13%. For the same compound, the logD in series [6] was determined as 2.47.
The compound `Cc1c(NC(=O)Cc2ccc(-c3ccccc3)cc2)c(=O)n(-c2ccccc2)n1C` [Compound 9, 2-([1,1’-biphenyl]-4-yl)-N-(1,5-dimethyl-3-oxo-2-phenyl-2,3-dihydro-1H-pyrazol-4-yl) acetamide] registered a melting point of 221.8 °C. For the same compound, the apparent permeability coefficient (Papp) at 2.75 h, 0.2 mg/mL in series [2] (PAMPA, pH 7.4) amounted to 4.51 ×10⁻⁶ cm/s. Also, in series [2] (Table S2, PAMPA-BBB), the Classification entry is given as “CNS +” and the Pe experimental was 4,51 10-6 cm s-1. In [2], the “PAMPA-BBB Score” value is “CNS+ (CNS+ (high predicted BBB permeability) Pe > 4.0 × 10^−6 cm/s)”. Moreover, in [3], the Papp at 8 h, 0.5 mM was 11 ×10⁻⁶ cm/s; the Classification result was “HIGH (high intestinal permeability: >70%)”; the “Pe Exp” value is given as 11,00 10-6 cm/s; the Fa was 98,47%. Also, the “PAMPA-GI Fa Exp” value in series [3] was determined as 98.47%. For the same compound, the solubility at 4 h in series [4] stood at 21.3 µM (≈ 8.47 µg/mL). For the same compound, the “Plasma Metabolization Rate” value in series [5] amounted to 24.56%. Moreover, the logD in [6] amounted to 2.14.
As to `O=C(O)Cc1ccccc1Nc1c(Cl)cccc1Cl` [Diclofenac, reference compound], the “Pe Lit” value in [8] is 12,5 10-6cm/s.
As for `Nc1nc2c(ncn2COCCO)c(=O)[nH]1` [Acyclovir, reference compound], the “Pe Exp” value in series [3] is 0,08 10-6 cm/s.
Same read-out and setting: to `C[C@]12C=CC(=O)C=C1CC[C@@H]1[C@@H]2C(=O)C[C@@]2(C)[C@H]1CC[C@]2(O)C(=O)CO` [Prednisone, reference compound] belongs 3,09 10-6 cm/s.
For the compound `CC(C)NCC(O)COc1ccc(CC(N)=O)cc1` (stereo not shown) [Atenolol, reference compound], in [2] (setting [9]), the Pe experimental was 0,46 10-6 cm s-1. Moreover, the Classification result in series [2] (Table S2, PAMPA-BBB) is recorded as “CNS -”. Further, in series [7], the Pe literatura is given as 0,8 10-6 cm s-1. The “Pe Lit” value in series [8] was 0,1 10-6cm/s.

(Values after PMC9781268, “2-Arylpropionic Acid Pyrazolamides as Cannabinoid CB2 Receptor Inverse Agonists Endowed with Anti-Inflammatory Properties” (Pharmaceuticals, 2022).)
